For series [1], the system named is Plasmodium falciparum. The series can be described thus: Antiplasmodial activity against chloroquine-sensitive Plasmodium falciparum D10 by parasite LDH assay. It counts as functional, organism-based.
The test system of series [2] is Plasmodium falciparum. The series can be described thus: Antiplasmodial activity against chloroquine-resistant Plasmodium falciparum Dd2 by parasite LDH assay. It counts as functional, organism-based.
A further series deals with CHO. As to the kind of experiment: Cytotoxicity against CHO cells by MTT assay. As to conditions: Cricetulus griseus. The format is cell-based. For orientation: Formazan colour is commonly taken as a measure of viable cells.
The test system of series [3] is Plasmodium falciparum. The series can be described thus: Resistance index, ratio of IC50 for chloroquine-resistant Plasmodium falciparum Dd2 to IC50 for chloroquine-sensitive Plasmodium falciparum D10. The format is functional.
The nature of series [4]: Selectivity index, ratio of IC50 for CHO cells to IC50 for chloroquine-sensitive Plasmodium falciparum D10. The format is toxicity, cell-based. To be noted: hamster, read-out: Ratio IC50.

Broadly, the IC50 is the concentration needed to halve the response being measured.

For `CCN(CC)CC(Cn1cncn1)NCc1ccc(OC)cc1` (racemic), the IC50 in the series on Plasmodium falciparum [1] came out at 1.98 µM; with Plasmodium falciparum [2] it was 80.9 µM; in the series on CHO, 159 µM. Moreover, the “Ratio IC50” value with Plasmodium falciparum [3] came to 41.1.

Turning to `CCN(CC)CC(CN(CC)CC)NCc1ccccc1`, the IC50 with Plasmodium falciparum [1] is 23.7 µM; with Plasmodium falciparum [2], 30.2 µM; in the series on CHO, greater than 300 µM. The “Ratio IC50” value with Plasmodium falciparum [3] worked out at 1.3.

Turning to `CCN(CC)CC1CN1Cc1ccccc1` (racemic), the IC50 turned out to be 15.2 µM with Plasmodium falciparum [1], 48.3 µM in the series on Plasmodium falciparum [2] and 402 µM in the series with CHO. Besides, the “Ratio IC50” value with Plasmodium falciparum [3] is on record as 3.2. For the same molecule, in series [4], the selectivity ratio came out at 26.3.

`Nc1ncnc2c1ncn2CC1CN1Cc1ccc(Cl)cc1` (racemic) yielded an IC50 with Plasmodium falciparum [1] greater than 300 µM.

Regarding `CCN(CC)CC(CN(CC)CC)NCc1ccc(Cl)cc1`, the IC50 amounted to 8.41 µM in the series on Plasmodium falciparum [1], 19.8 µM in the series on Plasmodium falciparum [2] and 76.4 µM in the series with CHO. The “Ratio IC50” value in the series on Plasmodium falciparum [3] was found to be 2.4. For the same molecule, in series [4], the selectivity ratio is 9.1.

In the series on Plasmodium falciparum [1], `Clc1ccc(CN2CC2Cn2cncn2)cc1` (racemic) gave an IC50 of 126 µM.

Regarding `COc1ccc(CN2CC2Cn2cc(C)c(=O)[nH]c2=O)cc1` (racemic), 172 µM corresponded to half-maximal inhibition in the series with Plasmodium falciparum [1] (IC50).

Regarding `Cc1cn(CC2CN2Cc2ccc(Cl)cc2)c(=O)[nH]c1=O` (racemic), in the series on Plasmodium falciparum [1], the midpoint of inhibition, the IC50, lay at 138 µM. The IC50 values of the last two molecules are within 1.5-fold of each other.

Consider `CCN(CC)CC(Cn1cncn1)NCc1ccccc1` (racemic), for which the IC50 in the series with Plasmodium falciparum [1] was 42.9 µM; in the series with Plasmodium falciparum [2], 98.8 µM; with CHO, greater than 300 µM. Moreover, the “Ratio IC50” value in the series on Plasmodium falciparum [3] came to 2.3.

Consider `CCN(CC)CC(CN(CC)CC)NCc1ccc(OC)cc1`, for which the IC50 with Plasmodium falciparum [1] was determined as 6.66 µM; with Plasmodium falciparum [2] it was 13.5 µM; in the series on CHO it was 170 µM. In the series on Plasmodium falciparum [3], the “Ratio IC50” value turned out to be 2. The selectivity ratio in series [4] was found to be 24.2.

For the molecule `CCN(CC)CC(Cn1cncn1)NCc1ccc(Cl)cc1` (racemic), the results for the IC50 in the series with Plasmodium falciparum [1], with Plasmodium falciparum [2] and with CHO were 6.52 µM, 13.1 µM and greater than 300 µM, respectively. Further, in the series with Plasmodium falciparum [3], the “Ratio IC50” value stood at 2.

Regarding `Nc1ncnc2c1ncn2CC1CN1Cc1ccccc1` (racemic), the concentration for half-maximal inhibition (IC50) in the series with Plasmodium falciparum [1] is greater than 350 µM.

Regarding `CCN(CC)CC(Cn1cc(C)c(=O)[nH]c1=O)NCc1ccc(OC)cc1` (racemic), in the series with Plasmodium falciparum [1], the midpoint of inhibition, the IC50, lay at 128 µM.

Molecule `CCN(CC)CC(Cn1cnc2c(N)ncnc21)NCc1ccccc1` (racemic) had an IC50 in the series with Plasmodium falciparum [1] of 214 µM.

Regarding `COc1ccc(CN2CC2Cn2cnc3c(N)ncnc32)cc1` (racemic), the 50% inhibitory concentration (IC50) with Plasmodium falciparum [1] came out at 267 µM.

For the molecule `COc1ccc(CN2CC2Cn2cncn2)cc1` (racemic), the IC50 in the series on Plasmodium falciparum [1] is 4.18 µM; in the series on Plasmodium falciparum [2] it was 23.2 µM; in the series with CHO it was greater than 400 µM. The “Ratio IC50” value in the series on Plasmodium falciparum [3] turned out to be 5.6.

Turning to `CCN(CC)CC(Cn1cnc2c(N)ncnc21)NCc1ccc(OC)cc1` (racemic), 81.9 µM corresponded to half-maximal inhibition with Plasmodium falciparum [1] (IC50).

As to `c1ccc(CN2CC2Cn2cncn2)cc1` (racemic), in the series on Plasmodium falciparum [1], the IC50 came to 80.7 µM.

Take `CC[C@H]1CN2CCc3cc(OC)c(OC)cc3[C@@H]2C[C@@H]1C[C@H]1NCCc2cc(OC)c(OC)cc21` [EMETINE]: in the series on CHO, the IC50 turned out to be 0.127 µM.

`CCN(CC)CC(Cn1cnc2c(N)ncnc21)NCc1ccc(Cl)cc1` (racemic) returned an IC50 with Plasmodium falciparum [1] of 78.2 µM. This counts as double-digit micromolar.

Turning to `CCN(CC)CC(Cn1cc(C)c(=O)[nH]c1=O)NCc1ccc(Cl)cc1` (racemic), in the series with Plasmodium falciparum [1], the midpoint of inhibition, the IC50, lay at 71.7 µM.

`CCN(CC)CC1CN1Cc1ccc(Cl)cc1` (racemic): the IC50 with Plasmodium falciparum [1] came to 6.49 µM; with Plasmodium falciparum [2], 23.7 µM; in the series with CHO it was 247 µM. Further, the “Ratio IC50” value in the series with Plasmodium falciparum [3] was found to be 3.7. For the same molecule, the selectivity ratio in series [4] was 38.1.

Turning to `CCN(CC)CC1CN1Cc1ccc(OC)cc1` (racemic), the half-maximal inhibitory concentration (IC50) with Plasmodium falciparum [1] turned out to be 8.54 µM; with Plasmodium falciparum [2], 18 µM; with CHO it was 193 µM. Besides, the “Ratio IC50” value in the series on Plasmodium falciparum [3] turned out to be 2.1. In addition, the selectivity ratio in series [4] was determined as 22.6.

Values taken from ChEMBL document CHEMBL1667753, “Synthesis of 2-(aminomethyl)aziridines and their microwave-assisted ring opening to 1,2,3-triaminopropanes as novel antimalarial pharmacophores” (Eur J Med Chem, 2011).
